{"source": "patent US20070275999A1", "about": "“PHARMACEUTICAL COMPOSITIONS CONTAINING A HYPOGLYCEMIC AGENT(S) FOR IMPROVING OR TREATING IMPAIRED GLUCOSE TOLERANCE, BORDERLINE DIABETES, INSULIN RESISTANCE OR HYPERINSULINEMIA” (Ajinomoto Co., Inc., priority 2005, published 2007)", "key": {"Zucker Fatty (ZF) rats [1]": {"system": "Zucker Fatty (ZF) rats", "assay": "Insulin tolerance test (ITT)", "type": "in vivo, rat", "description": "On another day of the fourth week, the insulin tolerance test (ITT) was conducted in order to examine the degree of improvement of the general insulin resistance. Commercially available insulin preparation (NOVORIN R, NOVO) diluted to 0.5 U/mL with a normal saline solution was subcutaneously injected to the back of ZF rats fasted overnight to become 0.5 U/kg. Their blood was collected through the caudal vein 15, 30, 60, 120 and 180 minutes after the administration to measure their blood glucose. The blood glucose was measured in accordance with the routine method.\nIn response to the above results, ITT was conducted in order to more precisely quantify the degree of improvement of the general insulin sensitivity. […] However, the blood glucose lowered by about 50% of the level before the administration in 60 minutes after the administration of insulin due to the treatment by mitiglinide."}, "Zucker Fatty (ZF) rats [2]": {"system": "Zucker Fatty (ZF) rats", "assay": "Circadian changes of blood glucose and insulin under restricted feeding after four weeks of treatment", "type": "in vivo, rat", "source_text": "The effectiveness of mitiglinide was examined by using Zucker Fatty (ZF) rats, which have the feature of obesity and insulin resistance. It is known that though ZF rats have hyperinsulinemia and impaired glucose tolerance, their fasting blood glucose is within a normal range and, therefore, their pathology is similar to IGT in human being (Br J Pharmacol 125, 1708-14, 1998).\nMale Zucker Fatty rats of 6 weeks old were introduced and acclimatized to the restricted feeding of one hour each (9:00 to 10:00 and 15:00 to 16:00) twice per a day. After acclimatization for one week, the rats were randomly divided into two groups, and drugs were administered to them for four weeks. As the drugs, mitiglinide suspended in 0.5% methylcellulose was forcibly orally administered to one group to become a dose of 3 mg/kg, and only 0.5% methylcellulose solution that is a dose vehicle was forcibly orally administered to the other group just before each meal twice per a day. The circadian changes of their blood glucose and insulin that occurred under the restricted feeding were measured upon starting the administration and in the fourth week after its start. The drugs were not administered on the measurement day, and their blood was collected through the caudal vein before morning feeding (9:00), one hour after the feeding (10:00), two hours after the feeding (11:00), before afternoon feeding (15:00), one hour after the feeding (16:00), and two hours after the feeding (17:00). Then, their blood glucose and insulin were measured in accordance with the routine method."}, "[3]": {"settings": "feeding 9:00 to 10:00 and 15:00 to 16:00, fourth week, 3 mg/kg"}, "[4]": {"settings": "male ZF rats, 3 mg/kg orally just before each meal twice per day for four weeks, measured in fourth week, no drug on measurement day"}}}
{"smiles": "O=C(O)[C@H](CC(=O)N1C[C@H]2CCCC[C@H]2C1)Cc1ccccc1", "note": "[Mitiglinide, (2S)-2-benzyl-4-[(3aR, 7aS) -octahydro-2H-isoindole-2-yl]-4-oxobutanoic acid]", "values": [{"measurement": "Sum of blood glucose", "setting": "Zucker Fatty (ZF) rats [1]; ITT in fourth week, insulin 0.5 U/kg s.c., ZF rats fasted overnight, blood 15-180 min after insulin", "value": "243 ± 7", "unit": "mg·h/dL"}, {"measurement": "Blood glucose lowering relative to the level before the administration of insulin", "setting": "Zucker Fatty (ZF) rats [1]; ITT, 60 minutes after insulin 0.5 U/kg s.c., FIG. 3", "value": "about 50%"}, {"measurement": "Circadian changes of the blood glucose (FIG. 1)", "setting": "Zucker Fatty (ZF) rats [2]; [3]", "value": "no change"}, {"measurement": "Insulin level in the blood plasma (FIG. 2)", "setting": "Zucker Fatty (ZF) rats [2]; [3]", "value": "decrease of the insulin level was clearly seen"}, {"measurement": "Sum of the circadian changes of blood glucose", "setting": "Zucker Fatty (ZF) rats [2]; [4]", "value": "1050 ± 20", "unit": "mg·h/dL"}, {"measurement": "Sum of the circadian changes of insulin", "setting": "Zucker Fatty (ZF) rats [2]; [4]", "value": "224 ± 11", "unit": "ng·h/mL"}]}
